Key:
[1] = tested on: Staphylococcus aureus; assay: Kirby-Bauer antibiotic sensitivity test on Mueller-Hinton agar; type: cell-based; settings: 6 mm filter papers, 37 degrees, 24 h
Experimental: FIG. 19. Kirby-Bauer antibiotic testing. BC-1215 was tested in antibiotic sensitivity tests using Mueller-Hinton agar. Briefly, 6 mm filter papers containing different amounts of BC-1215 or gentamicin (positive control) were added on the Mueller-Hinton agar pre-exposed to Staphylococcus aureus. The plates were incubated at 37 degrees for 24 h. Zone sizes were measured and marked by a red circle indicating positive results.
Briefly, 6 mm filter papers containing different amounts of BC-1215 or gentamicin antibiotic (positive control) were added on the Mueller-Hinton agar pre-exposed to Staphylococcus aureus. The plates were incubated at 37 degrees for 24 h. Zone sizes were measured and marked by a red circle indicating positive results.

[2] = tested on: PBMC cells; assay: LPS-treated PBMC human cytokine array; type: cell-based; settings: 10 ug/ml compound, 2 ug/ml LPS, 16 hrs
Experimental: FIG. 9. BC-1215 inhibits a broad spectrum of Th1 panel cytokines. PBMC cells (0.6 ml at 1.5*10^6/ml) were treated with 2 ug/ml LPS for 16 his with BC-1215 at 10 ug/ml. Cytokine release was monitored by the human cytokine array (R&D systems).
PBMC cells were treated with 2 ug/ml LPS for 16 hrs along with BC-1215 at 10 ug/ml. Cytokine release was monitored by a human cytokine array (R&D systems). […] These cytokines are tightly linked to the pathogenesis of many pro-inflammatory diseases, some of which have led to the use of blocking cytokine antibodies to reduce disease severity. For example: GM-CSF drives inflammation in rheumatoid arthritis (RA), and currently, GM-CSF blocking antibodies (MOR103) have been tested in Phase 1b/2a trial in patients suffering from RA.

[3] = tested on: Hela cells
Experimental: Hela cells were treated with BC-1215 at different concentrations for 24 h before cell cycle analysis (BD bioscience).

[4] = tested on: C57BL6 mice; assay: DSS induced (acute) colitis; type: in vivo; settings: 200 ug IP daily, 3.5% DSS up to five days
Experimental: FIGS. 17A-17D. BC-1215 reduces DSS induced colonic inflammation. FIGS. 17A-FIG. 17C. C57BL6 mice were fed with water containing 3.5% dextran sulfate sodium (DSS) for up to five days. Mice were treated with either vehicle or 100 ug of BC-1215 daily (via IP injection). Mice were then euthanized; the length of the colon was measured and graphed in (FIG. 17A). Colonic tissues were also analyzed for IL1β (FIG. 17B) and TNFα (FIG. 17C) by ELISA. (n=4 mice/group, *p<0.05 versus DSS) FIG. 17D, H&E staining was performed on colonic samples. (n=4 mice/group, *p<0.05 versus DSS)
FIGS. 24A-24E. […] A-D. C57BL6 mice were fed with water ad lib containing 3.5% dextran sulfate sodium (DSS) for up to five days. Mice were treated with either vehicle (control [CON]) or BC-1261 (150 μg) daily (via an i.p. injection), or BC-1261 were administered into drinking water at 30 μg/ml (po). Mice were then euthanized and the length of the colon was measured and graphed in (A-B). Colonic tissues were also analyzed for TNFα (C) and IL6(D). E. H&E staining was performed on colonic sections. The data represent n=4 mice/group, *P<0.05 versus DSS and **P<0.05 versus CON.
BC-1215 ameliorates DSS induced colitis. BC-1215 was also tested in a mouse colitis model to confirm its anti-inflammatory activity. Briefly, C57BL6 mice were fed with water containing 3.5% dextran sulfate sodium (DSS) for up to five days. Mice were treated with either vehicle or 200 ug of BC-1215 daily (via IP injection). Mice were then euthanized; the length of colons was measured. […] Colonic tissue cytokine levels were analyzed. […] Thus, the FBXO3 inhibitor BC-1215 suppresses inflammation in chemical induced colitis model in mice.

[5] = tested on: C57BL6 mice; assay: Pseudomonas aeruginosa PA103 pneumonia model; type: in vivo; settings: 100 ug IP, PA103 18 h
[6] = tested on: MLE cells; assay: MLE cells protein immunoblotting; type: cell-based, murine; settings: different concentrations, 16 h
Text: FIGS. 10A-10E. BC-1215 inhibits FBXO3 and decreases TRAF protein levels. FIG. 10A. […] FIG. 10B. In vitro ubiquitination assays. […] FIG. 10C. […] Cells were collected and assayed for immunoblotting. FIG. 10D. […] FIG. 10E.
BC-1215 inhibits FBXO3 and decreases TRAF protein levels. […] Cells were collected and assayed for protein immunoblotting.

[7] = biological target: T1, COX-2 (Mus musculus, UniProt Q05769); assay: COX-2 activity in MLE cells; type: cell-based, murine; settings: 10 ug/ml, 24 h; positive control DuP-697
T1 construct: MLE cells were treated with BC-1215 (10 ug/ml) for 24 h before assaying for COX-2 activity (Cayman); endogenous in cells; host or cells: MLE (murine lung epithelial) cells
T1 sequence (Q05769 18-604): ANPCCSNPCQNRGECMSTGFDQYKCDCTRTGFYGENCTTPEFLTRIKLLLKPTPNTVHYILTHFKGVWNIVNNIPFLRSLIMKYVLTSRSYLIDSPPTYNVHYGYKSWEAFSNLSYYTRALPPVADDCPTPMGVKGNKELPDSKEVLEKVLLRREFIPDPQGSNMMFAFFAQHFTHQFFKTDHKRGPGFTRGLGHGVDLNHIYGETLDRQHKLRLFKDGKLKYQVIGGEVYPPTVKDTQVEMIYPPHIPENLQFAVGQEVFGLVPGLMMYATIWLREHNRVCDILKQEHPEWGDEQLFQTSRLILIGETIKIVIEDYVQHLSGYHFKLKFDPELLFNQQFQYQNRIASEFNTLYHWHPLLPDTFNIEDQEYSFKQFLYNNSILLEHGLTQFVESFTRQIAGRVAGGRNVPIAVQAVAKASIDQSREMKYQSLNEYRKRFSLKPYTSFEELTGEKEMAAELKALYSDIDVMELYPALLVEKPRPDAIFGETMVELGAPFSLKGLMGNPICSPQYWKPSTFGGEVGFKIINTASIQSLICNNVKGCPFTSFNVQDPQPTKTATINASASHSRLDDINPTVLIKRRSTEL

`c1ccc(-c2ccc(CNCCNCc3ccc(-c4ccccn4)cc3)cc2)nc1` [BC-1215] was tested, and the “S. aureus proliferation (zone of inhibition)” value [1] was “inhibits S. aureus proliferation”, the “TH1 panel cytokine release” value [2] was “significantly suppress the majority of the TH1 panel cytokines” and the cell cycle progression [3] was “did not significantly alter cell cycle progression”. The “IL1β levels in colon tissues” value [4] was “remarkable reduction”, the “TNFα levels in colon tissues” value [4] was “remarkable reduction” and the colon length [4] was “no significant decrease in colon length compared to control”. The “colonic tissue injury (H&E)” value [4] was “significantly reduced”, the cell infiltrates [5] was “decreased” and the lavage cell counts [5] was “decreased”. The “lavage pro-inflammatory cytokine levels” value [5] was “significantly decreased”, the lavage protein concentration [5] was “decreased” and the lung compliance [5] was “increased compliance”. For the same molecule, the lung elastance [5] was “reduced elastance”, the lung resistance [5] was “decreased lung resistance” and the FBXL2 protein levels [6] was “increased FBXL2 protein levels in a dose dependent manner”. The TRAF protein levels [6] was “decreasing TRAF protein levels” and the COX-2 activity [7] was “did not alter COX-2 activity”.

Source: US11857550B2, “Benzathine analogs” (University of Pittsburgh—Of the Commonwealth System of …, priority 2012, dated 2024)
